# In US20240180895A1, “USE OF KAPPA OPIOID RECEPTOR AGONISTS TO TREAT CARDIOVASCULAR DISEASE” (Board of Supervisors of Louisiana State University and …, priority 2021, published 2024):
# Legend:
# Sprague-Dawley rats = assay: Reversal of oral furosemide diuretic resistance by oral nalfurafine (FIG. 17); assay type: in vivo, rat; conditions: nalfurafine 150 μg/kg oral added from day 7
# Protocol: Male Sprague-Dawley rats were placed in individual metabolic cages in a room with 12-hour automatic light on/off control and allowed tap water and rodent chow ad libitum. Over the next two (2) days (control period), rats were administered vehicle (5% NaOH; 1 M PBS) orally (gavage) in the morning (9:00 am) and afternoon (2:00 pm) and urine was collected for 5-hours after the first oral treatment. […] This was repeated for 8 consecutive days (experimental period).
# [1] = test system: conscious Sprague-Dawley rats; assay: Metabolic cage renal excretory studies, oral gavage (Example 3); assay type: in vivo, rat
# Protocol: Animals: Male Sprague-Dawley (SD) rats (Envigo Labs, Indianapolis, IN), 300-350 g, were individually housed under a 12 h light-dark cycle and allowed tap water and standard rodent diet ad libitum. Rats were randomly assigned to experimental groups for all acute and subacute studies. All procedures were approved by the Louisiana State University Health Sciences Center Institutional Animal Care and Use Committee and conducted in accordance with the National Institutes of Health guidelines for the care and use of animals.
# Metabolic Cage Renal Excretory Studies: Rats were placed in metabolic cages (model 18cv, Fenco, Cataumet, MA) for 2 hours to allow for acclimation and voiding of residual urine. Following the acclimation period, rats were volume loaded with 20 cc kg^−1 drug or vehicle (isotonic saline) via oral gavage. Urines were collected each hour over a 5-hour period. Following completion of the study rats were returned to their home cages. […] These points are marked on the figures with number of measurements in parentheses.
# Experimental Design and Analysis: All results are expressed as mean±SEM. […] Means between groups for total urine output, Na^+ concentration, K^+ concentration, and urine osmolality were compared using a Student's t-test. Statistical significance was characterized as P<0.05. Statistics were carried out using Prism 7.05 software (GraphPad Software, Inc., San Diego, CA) and IBM SPSS Statistics (IBM, Armonk, NY).
# hemodialysis patients = conditions: nearly 4000 hemodialysis patients (Kozono, Yoshitani, et al., 2018); cited from earlier work
# [2] = test system: conscious Sprague-Dawley rats; assay: Acute cardiovascular and renal excretory studies with ICV or IV norBNI pretreatment (Example 4); assay type: in vivo, rat; conditions: for Total urine output: difelikefalin 10 μg/kg or nalfurafine 5 μg/kg IV, 90 min; for Urine osmolality / Urine potassium concentration [K+] / Urine sodium concentration [Na+]: total 90-min urine
# Protocol: Male Sprague-Dawley rats (Envigo Labs, Indianapolis, IN) were individually housed, allowed tap water and standard rodent diet ad libitum, and kept under a 12-hour light-dark cycle. Rats used in these experiments weighed between 300 and 350 grams and were randomly assigned to experimental groups. All procedures were conducted in accordance with the National Institutes of Health guidelines for the care and use of animals and approved by the Louisiana State University Health Sciences Center Institutional Animal Care and Use Committee.
# Aseptic technique was adhered to for all surgeries and detailed surgical methods were followed as previously described.^14 Briefly, 3-5 days before experimentation, rats requiring central ventricle access for administration of drug/vehicle into the brain were anesthetized with ketamine and xylazine and a stainless-steel cannula was stereotaxically implanted into the right lateral cerebral ventricle.^14
# On the morning of the experiment, rats were anesthetized and maintained with inhaled 2% isoflurane, and polyethylene catheters were surgically placed into the left femoral artery, left femoral vein, and urinary bladder.^15.16 Following surgery, rats were placed in an elevated restrainer for recovery and collection of urine from an indwelling bladder catheter.^15 After completion of experimental protocols, rats were anesthetized with isoflurane and decapitated.
# During stabilization of cardiovascular and renal excretory parameters, rats received an isotonic saline infusion (55 μl/min), which lasted throughout the duration of the experiment. To record mean arterial pressure (MAP) and heart rate (HR), arterial catheters were connected to a pressure transducer (MLT0670, ADInstruments, Sydney, Australia), which was connected to Powerlab 8/30 (ADInstruments) and visualized using LabChart software (v8.1.5; ADInstruments). After one hour of recovery from surgery, rats were pretreated with the KOR antagonist norBNI or isotonic saline vehicle through either an intracerebroventricular (ICV) catheter or intravenous (IV) catheter. […] Next, drug or vehicle (isotonic saline) was injected into the femoral vein and urine samples were collected every 10 minutes during a 90-minute experimental period. The following drug concentrations were used: nalfurafine 5 μg/kg, difelikefalin 10 μg/kg, norBNI 30 mg/kg (IV), norBNI 1 μg/5 μL (ICV). All groups are n=6. Urine sodium and potassium were measured using a flame photometer (model 943; Instrumentation Laboratories, Lexington, MA). Urine volume was measured gravimetrically, and urine osmolality was measured using a vapor pressure osmometer (model 5600; WESCOR, Logan, UT).
# All results are expressed as mean±SEM. For determining statistically different changes at time points within a treatment group, means were compared to the control value using 2-way ANOVA with repeated measures and a post hoc Dunnett test following confirmation of a significant F value. For statistically different changes at individual time points between treatment groups, mean values were compared using 2-way ANOVA with repeated measures and a post hoc Sidak test following confirmation of a significant/value. For means between groups for total urine output, urine sodium concentration, urine potassium concentration, and urine osmolality, a Student/test was used. Statistical significance was characterized as P<0.05 and statistics were performed on Prism 7.05 software (GraphPad Software, Inc, San Diego, CA).
# [3] = oral gavage, cumulative 5-hour urine, same doses, mean±SEM
# [4] = ICV norBNI (1 μg/5 μL) pretreatment
# [5] = IV norBNI (30 mg/kg) pretreatment
structure (smiles),measurement,setting,value
"CN(C(=O)/C=C/c1ccoc1)[C@@H]1CC[C@@]2(O)[C@H]3Cc4ccc(O)c5c4[C@@]2(CCN3CC2CC2)[C@H]1O5 [nalfurafine, Nalfurafine]",Effect on established diuretic resistance to furosemide,Sprague-Dawley rats,able to treat or rescue the diuretic resistance
same,Time of peak diuresis,[1]; after oral gavage 150 μg kg−1,2 h
same,Potassium concentration [K+] in cumulative urine,[1]; [3],14.55±1.46 μeq ml^−1
same,Sodium concentration [Na+] in cumulative urine,[1]; [3],16.92±1.45 μeq ml^−1
same,Total urine output,"[1]; oral gavage, cumulative urine of 5-hour protocol, nalfurafine 150 μg kg−1, furosemide 50 mg kg−1, HCTZ 5 mg kg−1, amiloride 5 mg kg−1, mean±SEM, n=6",14.55 ± 0.57 mL
same,Dysphoric adverse effects,hemodialysis patients,did not cause the typical dysphoric adverse effects
same,Effect on MAP,[2]; [4],prevented the decrease in MAP
same,Total urine output,[2]; [4],4.72 ± 0.41 mL
same,Urine osmolality,[2]; [4],358.5 ± 30.6 mmol/kg
same,Urine potassium concentration [K+],[2]; [4],12.77±3.99 μeq/mL
same,Urine sodium concentration [Na+],[2]; [4],82.33±7.74 μeq/mL
same,Total urine output,[2]; ICV vehicle (5 μL) pretreatment,8.37 ± 0.40 mL
same,Effect on HR,[2]; ICV vehicle pretreatment,slight but statistically significant increase in HR
same,MAP peak Δ,"[2]; ICV vehicle pretreatment, peak at 60 min (difelikefalin), 50 min (nalfurafine)",−6 mmHg
same,Urine osmolality,[2]; ICV vehicle pretreatment,164 ± 8.09 mmol/kg
same,Urine potassium concentration [K+],[2]; ICV vehicle pretreatment,8.19±2.15 μeq/mL
same,Urine sodium concentration [Na+],[2]; ICV vehicle pretreatment,37.78±5.35 μeq/mL
same,Effect on HR,[2]; [5],did not produce any change in HR
same,MAP peak Δ,"[2]; IV norBNI (30 mg/kg) pretreatment, 80-minute peak for difelikefalin",abolished
same,Total urine output,[2]; [5],5.03 ± 0.39 mL
same,Urine osmolality,[2]; [5],439.2 ± 24.02 mmol/kg
same,Urine potassium concentration [K+],[2]; [5],10.94±1.09 μeq/mL
same,Urine sodium concentration [Na+],[2]; [5],109.1±7.85 μeq/mL
same,Total urine output,[2]; IV vehicle (2 cc/kg) pretreatment,9.37 ± 0.42 mL
same,Effect on HR,[2]; IV vehicle pretreatment,did not produce any change in HR
same,Urine osmolality,[2]; IV vehicle pretreatment,148.7 ± 4.4 mmol/kg
same,Urine potassium concentration [K+],[2]; IV vehicle pretreatment,5.49±0.68 μeq/mL
same,Urine sodium concentration [Na+],[2]; IV vehicle pretreatment,32.56±3.05 μeq/mL
